Experimental data as given in US20250134907A1, “FUSED DIAZEPINES AS AGONISTS OF THE INSULIN-LIKE 3 (INSL3) PEPTIDE RECEPTOR RXFP2 AND METHODS OF USE THEREOF” (The United States of America,as represented by the …, priority 2022, published 2025).

Target: T1, RXFP2 (Homo sapiens, UniProt Q8WXD0)
T1 construct: expressed in transfected cells
Assay: HTRF cAMP assay in HEK293T cells stably expressing RXFP2 (HEK-RXFP2)
Assay type: cell-based
Conditions: IBMX 200 μM; for % EFF vs. 1 nM INSL3 (a): maximum cAMP response normalized to 1 nM INSL3 response; for % EFF vs. 1 nM INSL3 (b): normalized to 1 nM INSL3 cAMP response
Experimental: Compound efficacy and EC50 were determined by measuring cAMP induction in vitro. HEK293T cells stably expressing RXFP2 (HEK-RXFP2) produce cAMP when RXFP2 is activated, which can be measured in an antibody-based immunoassay utilizing a fluorescent readout (cAMP Gs HiRange Kit, PerkinElmer, Waltham, MA). HEK-RXFP2 cells were seeded in 96-well plates in serum-free DMEM and incubated overnight at 37° C., 5% CO2. Plates were then treated with a compound titration up to 25 μM or INSL3 control, in the presence of isobutylmethylxanthine phosphodiesterase inhibitor (IBMX) at 200 μM to amplify the cAMP signal, for 1 hour at 37° C., 5% CO2 before being processed as per kit instructions. Table 7 lists the efficacy and EC50 of compounds tested under different experimental conditions. […] In condition (a), 20,000 cells were seeded per well in the 96 well plate, and efficacy was determined by normalizing the maximum compound cAMP response to the 1 nM INSL3 cAMP response (% Efficacy 1 nM INSL3 (a)). In condition (b), 10,000 cells were seeded per well, and compound response was normalized to the 1 nM INSL3 cAMP response (% Efficacy 1 nM INSL3 (b)). In condition (c), 7,500 cells were seeded per well, compound response was normalized to the 100 nM INSL3 cAMP response, and IBMX was omitted (% Efficacy 100 nM INSL3 (c)). A range is given when compounds were tested multiple times. Where compounds were tested under multiple experimental conditions, the EC50 listed for the corresponding condition is marked (a) through (c) to correlate. When EC50 could not be calculated from the dose-response curve, EC50 is listed as not determined (ND).

[1] = condition (a): 20,000 cells/well
[2] = condition (b): 10,000 cells/well

T1 sequence (Q8WXD0 whole entry): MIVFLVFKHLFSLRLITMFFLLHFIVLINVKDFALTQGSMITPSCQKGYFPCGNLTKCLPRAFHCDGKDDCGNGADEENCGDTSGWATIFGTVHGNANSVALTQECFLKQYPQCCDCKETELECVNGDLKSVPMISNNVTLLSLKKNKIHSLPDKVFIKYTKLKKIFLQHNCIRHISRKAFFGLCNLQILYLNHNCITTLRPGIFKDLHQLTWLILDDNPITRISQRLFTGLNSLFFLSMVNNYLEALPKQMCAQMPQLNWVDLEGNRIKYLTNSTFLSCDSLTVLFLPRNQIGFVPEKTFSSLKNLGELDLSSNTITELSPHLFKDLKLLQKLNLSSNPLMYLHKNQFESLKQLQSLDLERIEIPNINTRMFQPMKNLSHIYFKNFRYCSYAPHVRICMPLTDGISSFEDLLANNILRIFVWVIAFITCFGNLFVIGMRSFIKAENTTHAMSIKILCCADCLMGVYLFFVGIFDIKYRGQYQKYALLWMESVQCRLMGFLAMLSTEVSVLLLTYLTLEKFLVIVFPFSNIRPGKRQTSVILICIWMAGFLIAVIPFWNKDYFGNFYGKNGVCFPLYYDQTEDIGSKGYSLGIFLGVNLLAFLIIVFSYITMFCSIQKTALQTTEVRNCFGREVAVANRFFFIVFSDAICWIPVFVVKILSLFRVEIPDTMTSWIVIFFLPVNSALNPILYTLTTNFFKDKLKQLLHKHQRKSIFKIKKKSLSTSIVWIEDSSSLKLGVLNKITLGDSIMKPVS

O=C1Nc2ccc(-c3cccc(C(F)(F)F)c3)cc2C(=O)N2CCN(C(=O)COc3ccc(C(F)(F)F)c(F)c3F)CC12 (stereo not drawn) [Example 68, 2-(2-(2,3-difluoro-4-(trifluoromethyl)phenoxy)acetyl)-8-(3-(trifluoromethyl)phenyl)-1,3,4,12a-tetrahydrobenzo[e]pyrazino[1,2-a][1,4]diazepine-6,12 (2H, 11H)-dione]
EC50 [1]: 8.56 nM
% EFF vs. 1 nM INSL3 (a) [1]: 33.99%

O=C1Nc2ccc(-c3cccc(C(F)(F)F)c3)cc2C(=O)N2CCN(C(=O)COc3ccc(OC(F)(F)F)cc3F)CC12 (stereo not drawn) [Example 101, 2-(2-(2-fluoro-4-(trifluoromethoxy)phenoxy)acetyl)-8-(3-(trifluoromethyl)phenyl)-1,3,4,12a-tetrahydrobenzo[e]pyrazino[1,2-a][1,4]diazepine-6,12 (2H, 11H)-dione]
EC50 [1]: 24.5 nM
% EFF vs. 1 nM INSL3 (a) [1]: 35.5%

Cc1cc(-c2ccc3c(c2)C(=O)N2CCN(C(=O)COc4ccc(OC(F)(F)F)cc4Cl)CC2C(=O)N3)cc(C(F)(F)F)c1 (stereo not drawn) [Example 105, 2-(2-(2-chloro-4-(trifluoromethoxy)phenoxy)acetyl)-8-(3-methyl-5-(trifluoromethyl)phenyl)-1,3,4,12a-tetrahydrobenzo[e]pyrazino[1,2-a][1,4]diazepine-6,12 (2H, 11H)-dione]
% EFF vs. 1 nM INSL3 (a) [1]: 143.62%
EC50 [2]: 84.2 to 219 nM
% EFF vs. 1 nM INSL3 (b) [2]: 81.13-152.31%

O=C1Nc2ccc(-c3ccc(C(F)(F)F)s3)cc2C(=O)N2CCN(C(=O)COc3ccccc3)CC12 (stereo not drawn) [Example 107, 2-(2-phenoxyacetyl)-8-(5-(trifluoromethyl)thiophen-2-yl)-1,3,4,12a-tetrahydrobenzo[e]pyrazino[1,2-a][1,4]diazepine-6,12 (2H, 11H)-dione]
% EFF vs. 1 nM INSL3 (a) [1]: 27.96%

Cc1cc(OC(F)(F)F)ccc1OCC(=O)N1CCN2C(=O)c3cc(-c4cccc(C(F)(F)F)n4)ccc3NC(=O)C2C1 (stereo not drawn) [Example 108, 2-(2-(2-methyl-4-(trifluoromethoxy)phenoxy)-acetyl)-8-(6-(trifluoromethyl)pyridin-2-yl)-1,3,4,12a-tetrahydrobenzo[e]pyrazino[1,2-a][1,4]diazepine-6,12 (2H, 11H)-dione]
% EFF vs. 1 nM INSL3 (b) [2]: 38.19%

O=C1Nc2ccc(-c3cccc(C(F)(F)F)c3)cc2C(=O)N2CCN(C(=O)COc3ccccc3)C[C@@H]12 [Example 112, (S)-2-(2-phenoxyacetyl)-8-(3-(trifluoromethyl)phenyl)-1,3,4,12a-tetrahydrobenzo[e]pyrazino[1,2-a][1,4]diazepine-6,12 (2H, 11H)-dione]
% EFF vs. 1 nM INSL3 (a) [1]: 12.93%

O=C1Nc2ccc(-c3cccc(C(F)(F)F)c3)cc2C(=O)N2CCN(C(=O)COc3ccccc3)C[C@H]12 [Example 115, (R)-2-(2-phenoxyacetyl)-8-(3-(trifluoromethyl)phenyl)-1,3,4,12a-tetrahydrobenzo[e]pyrazino[1,2-a][1,4]diazepine-6,12 (2H, 11H)-dione]
% EFF vs. 1 nM INSL3 (a) [1]: 3.69%

O=C1Nc2ccc(-c3cccc(C(F)(F)F)c3)cc2C(=O)N2CCN(C(=O)COc3ccc(OC(F)(F)F)cc3Cl)C[C@@H]12 [Example 117, (S)-2-(2-(2-chloro-4-(trifluoromethoxy)phenoxy)acetyl)-8-(3-(trifluoromethyl)phenyl)-1,3,4,12a-tetrahydrobenzo[e]pyrazino[1,2-a][1,4]diazepine-6,12 (2H, 11H)-dione]
EC50 [2]: 15.6 nM
% EFF vs. 1 nM INSL3 (b) [2]: 77.84%

O=C1Nc2ccc(-c3cccc(C(F)(F)F)c3)cc2C(=O)N2CCN(C(=O)COc3ccc(OC(F)(F)F)cc3Cl)C[C@H]12 [Example 118, (R)-2-(2-(2-chloro-4-(trifluoromethoxy)phenoxy)acetyl)-8-(3-(trifluoromethyl)phenyl)-1,3,4,12a-tetrahydrobenzo[e]pyrazino[1,2-a][1,4]diazepine-6,12 (2H, 11H)-dione]
% EFF vs. 1 nM INSL3 (a) [1]: 43.71%

Cc1cc(OC(F)(F)F)ccc1OCC(=O)N1CCN2C(=O)c3cc(-c4cccc(C(F)(F)F)c4)ccc3NC(=O)[C@@H]2C1 [Example 120, (S)-2-(2-(2-methyl-4-(trifluoromethoxy)phenoxy)acetyl)-8-(3-(trifluoromethyl)phenyl)-1,3,4,12a-tetrahydrobenzo[e]pyrazino[1,2-a][1,4]diazepine-6,12 (2H, 11H)-dione]
EC50 [2]: 8.6 nM
% EFF vs. 1 nM INSL3 (b) [2]: 70.76%

Cc1cc(OC(F)(F)F)ccc1OCC(=O)N1CCN2C(=O)c3cc(-c4cccc(C(F)(F)F)c4)ccc3NC(=O)[C@H]2C1 [Example 121, (R)-2-(2-(2-methyl-4-(trifluoromethoxy)phenoxy)acetyl)-8-(3-(trifluoromethyl)phenyl)-1,3,4,12a-tetrahydrobenzo[e]pyrazino[1,2-a][1,4]diazepine-6,12 (2H, 11H)-dione]
% EFF vs. 1 nM INSL3 (a) [1]: 28.28%

O=C1Nc2ccc(-c3cc(C(F)(F)F)ccc3F)cc2C(=O)N2CCN(C(=O)COc3ccc(OC(F)(F)F)cc3Cl)C[C@@H]12 [Example 127, (S)-2-(2-(2-chloro-4-(trifluoromethoxy)phenoxy)acetyl)-8-(2-fluoro-5-(trifluoromethyl)phenyl)-1,3,4,12a-tetrahydrobenzo[e]pyrazino[1,2-a][1,4]diazepine-6,12 (2H, 11H)-dione]
EC50 [2]: 12 nM
% EFF vs. 1 nM INSL3 (b) [2]: 84.99%

O=C1Nc2ccc(-c3cc(C(F)(F)F)ccc3F)cc2C(=O)N2CCN(C(=O)COc3ccc(OC(F)(F)F)cc3Cl)C[C@H]12 [Example 130, (R)-2-(2-(2-chloro-4-(trifluoromethoxy)phenoxy)acetyl)-8-(2-fluoro-5-(trifluoromethyl)phenyl)-1,3,4,12a-tetrahydrobenzo[e]pyrazino[1,2-a][1,4]diazepine-6,12 (2H, 11H)-dione]
% EFF vs. 1 nM INSL3 (b) [2]: 54.37%

O=C1Nc2ccc(-c3cc(C(F)(F)F)ccc3F)cc2C(=O)N2CCN(C(=O)COc3ccc(C(F)(F)F)cc3Cl)C[C@@H]12 [Example 132, (S)-2-(2-(2-chloro-4-(trifluoromethyl)phenoxy)acetyl)-8-(2-fluoro-5-(trifluoromethyl)phenyl)-1,3,4,12a-tetrahydrobenzo[e]pyrazino[1,2-a][1,4]diazepine-6,12 (2H, 11H)-dione]
% EFF vs. 1 nM INSL3 (b) [2]: 68.09%

Cc1ccc(C(F)(F)F)cc1-c1ccc2c(c1)C(=O)N1CCN(C(=O)COc3ccc(OC(F)(F)F)cc3Cl)C[C@H]1C(=O)N2 [Example 136, (S)-2-(2-(2-Chloro-4-(trifluoromethoxy)phenoxy)acetyl)-8-(2-methyl-5-(trifluoromethyl)phenyl)-1,3,4,12a-tetrahydrobenzo[e]pyrazino[1,2-a][1,4]diazepine-6,12 (2H, 11H)-dione]
EC50 [2]: 67 to 89.4 nM
% EFF vs. 1 nM INSL3 (b) [2]: 92.5-107.57%

Cc1ccc(C(F)(F)F)cc1-c1ccc2c(c1)C(=O)N1CCN(C(=O)COc3ccc(C(F)(F)F)cc3Cl)C[C@H]1C(=O)N2 [Example 137, (S)-2-(2-(2-chloro-4-(trifluoromethyl)phenoxy)acetyl)-8-(2-methyl-5-(trifluoromethyl)phenyl)-1,3,4,12a-tetrahydrobenzo[e]pyrazino[1,2-a][1,4]diazepine-6,12 (2H, 11H)-dione]
% EFF vs. 1 nM INSL3 (b) [2]: 53.62%
